This assay concerns the target T1, α1β2 receptor (Rattus norvegicus, UniProt P62813+P63138).
T1 construct: gene Gabra1; full-length rat subunit cDNAs by RT-PCR from brain mRNA; α in pcDNA3.1(+), β in pIRES2-EGFP (EGFP separate via IRES); HEK293; α:β cDNA 1:1, said to favor 2α:3β pentamer
Nature of the assay: whole-cell patch clamp, HEK293. The format is cell-based. The settings on record: 200 µM; positive allosteric modulator, non-classical site; co-applied with 0.1 μmol/L GABA; −60 mV; pH 7.4. The source says:
whole-cell patch clamp, HEK293 on α1β2 receptor
For orientation: The patch-clamp technique gives a direct electrical read-out from membranes.

T1 sequence (P62813 28-455): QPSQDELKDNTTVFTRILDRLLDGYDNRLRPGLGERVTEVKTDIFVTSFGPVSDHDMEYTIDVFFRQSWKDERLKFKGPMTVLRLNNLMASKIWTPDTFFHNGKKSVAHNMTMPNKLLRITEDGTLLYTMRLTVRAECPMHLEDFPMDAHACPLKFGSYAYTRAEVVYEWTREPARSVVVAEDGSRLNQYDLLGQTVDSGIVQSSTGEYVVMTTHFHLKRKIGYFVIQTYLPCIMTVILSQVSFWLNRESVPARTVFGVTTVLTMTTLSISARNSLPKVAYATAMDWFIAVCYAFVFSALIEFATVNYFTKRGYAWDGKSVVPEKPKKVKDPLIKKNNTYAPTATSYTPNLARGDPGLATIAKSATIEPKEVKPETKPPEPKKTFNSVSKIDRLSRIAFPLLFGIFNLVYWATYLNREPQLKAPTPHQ
T1 sequence (P63138 26-474): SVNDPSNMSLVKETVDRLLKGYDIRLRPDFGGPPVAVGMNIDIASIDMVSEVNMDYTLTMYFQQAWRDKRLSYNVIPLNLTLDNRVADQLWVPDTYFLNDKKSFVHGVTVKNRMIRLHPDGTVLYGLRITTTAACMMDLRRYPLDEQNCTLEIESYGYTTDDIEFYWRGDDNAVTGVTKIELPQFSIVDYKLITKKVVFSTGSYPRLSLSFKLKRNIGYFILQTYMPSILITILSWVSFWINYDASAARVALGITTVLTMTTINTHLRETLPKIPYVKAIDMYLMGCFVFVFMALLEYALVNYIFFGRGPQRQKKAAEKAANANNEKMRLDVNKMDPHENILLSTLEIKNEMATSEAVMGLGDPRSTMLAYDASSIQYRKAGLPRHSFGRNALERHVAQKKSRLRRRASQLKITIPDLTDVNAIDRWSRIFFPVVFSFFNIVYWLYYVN

Regarding `Cc1ncc2n1-c1ccc(Cl)cc1C(c1ccccc1F)=NC2` [Midazolam], the “Potentiation of GABA Currents (%) / (Midazolam)” value was 171.8 ± 13.8%.

The values above are taken from PMC7139822, “Flumazenil-Insensitive Benzodiazepine Effects in Recombinant αβ and Neuronal GABAA Receptors” (Brain Sciences, 2020).
